“Also recorded” adds a separate entry of the source. Where two headings read alike, the source gives them in different places.
Columns and labels:
NHE1 [1] = target: T1, NHE1 (Homo sapiens, UniProt P19634); experiment: NHE1 inhibition: sodium-dependent pHi recovery in BCECF-loaded U87 glial cells after ammonium chloride pre-pulse; assay type: cell-based; parameters: Sodium-dependent proton extrusion in U87 glial cells and in primary astrocytes is mediated by the type 1 sodium proton exchanger (NHE1); endogenous in cells; host or cells: U87 human glioma cells
Method: Intracellular pH Measurements. U87 glial cells were grown on glass coverslips and incubated for 30 minutes at 37° C. with the pH-sensitive dye, 2′,7′-bis(2-carboxyethyl)-5(6)-carboxyfluorescein-AM (BCECF-AM; Molecular Probes, OR). Cells were rinsed with HEPES Ringer buffer twice and maintained at 37° C. for an additional 15 minutes to permit intracellular hydrolysis of the AM ester; trapping BCECF within the cells. Cells on coverslips were placed in a Hitachi F2000 fluorescent spectrophotometer and excited at 440 and 507 nm with fluorescent emissions recorded at 535 nm (Hegde et al., J. Pharmacol. Exp. Ther., 310:67-74 (2004)).
NHE inhibition by compounds 3a and 3c was evaluated using intracellular pH (pHi) measurements in the U87 human glial cell line (Hegde et al., supra). Cells loaded with BCECF were then acidified using the ammonium chloride pre-pulse method (Roos et al., Physiol Rev, 61:296-434 (1981)). The subsequent sodium-dependent recovery of pHi by these cells in the absence of bicarbonate was monitored using a spectrofluorometer. Sodium-dependent proton extrusion in U87 glial cells and in primary astrocytes is mediated by the type 1 sodium proton exchanger (NHE1) (McLean et al., supra; Hegde et al., supra) and was monitored in the presence or absence of compound 3a or 3c.
IC50 drug determinations for NHE1. This method utilizes spectrofluorometric measurements of [H^+]i as described above. The ammonium chloride prepulse method can be used to acidify cells in the presence of HR that is sodium-substituted with NMDG. Perfusion of the acidified cells with HR that contains sodium causes activation of NHE1 that is inhibited in a concentration-dependent fashion as described in McLean et al., supra.

NHE1 [2] = target: T2, NHE1 (Rattus norvegicus, UniProt P26431); details: read-out: IC50 of amiloride (NHE); primary rat astrocytes; cited from earlier work
T2 construct: in primary rat astrocytes (6 μM) (McLean et al., supra); host or cells: primary rat astrocytes

NHE1 and NCX = NHE1 and NCX inhibitors from the literature; cited from earlier work
U87 glioma cells [3] = experiment: Glioma cell death, manual cell counts with trypan blue exclusion
[4] = system: intracerebral U87 glioma xenografts; experiment: Intracerebral U87 glioma xenografts in athymic rats, amiloride infusion by Alzet pump, tumor volume by NMR and histology; assay type: in vivo, rat; details: for Doubling time, day postimplant 10: before drug infusion (day 12-17); for Doubling time, day postimplant 12 / Doubling time, day postimplant 15 / Doubling time, day postimplant 17: drug infusion day 12-17
Method: U87 glioma cells were stereotaxically implanted into the corpus striatum of brains of athymic (i.e., T-cell deficient) rats and characterized as an in vivo treatment model. Nissl-stained coronal sections were used to calculate tumor volumes from day 4 to day 28 post-implantation. T1-weighted NMR images were acquired from a separate set of animals to serially measure tumor volumes of intracerebral U87 glioma xenografts.
BrdU was injected intraperitoneally 3 h prior to perfusion fixation with paraformaldehyde in deeply anesthetized animals.

astrocytes = assay type: cell-based; details: amiloride ≧500 μM, 48-72 hours
Source text: Cell culture. The five human glioma cell lines can be obtained from the American Tissue Culture Collection (ATCC). Primary cultures of rat astrocytes can be isolated from the cerebral cortex of neonatal rats (0-1 day old). For measurements of [H^+]i, [Ca^2+]i, and [Na^+]i, cells can be grown on glass coverslips coated with rat tail collagen type I.

U87 glioma cells [5] = system: U87 glioma cells
U87 glioma cells [6] = experiment: Glioma cell proliferation, manual cell counts with trypan blue; assay type: cell-based, human; details: glioma cells
Method: C(5)-amiloride glycine conjugate (C5am-Gly) inhibits NHE1 in U87 glioma cells and is antiproliferative. […] The inhibitory activity of C5am-Gly against NCX was tested and a systematic log dose screen of C5am-Gly against a panel of glioma cells and primary astrocytes was performed.
Manual cell counts with dye exclusion assays. Identical concentrations of glioma cells can be plated on 60 mm dishes and grown until 50% confluent. Following drug treatments, media containing floating cells can be collected in suspension. Adherent cells can be rinsed in calcium- and magnesium-free phosphate-buffered saline (PBS-CMF) and removed by incubation with 0.25% v/v trypsin for 5 minutes (37° C.). Cell suspensions can be combined with the floating fraction and centrifuged at 350×g for 5 minutes. The resulting pellet (one per dish) can be resuspended in equal volumes of PBS-CMF with 0.4% trypan blue and/or 500 nM Sytox Green. 10 μL aliquots of the suspension can be plated on a hemocytometer, and cells can be counted 5 minutes after staining. Simultaneous staining of cells with trypan (TB) and Sytox Green (SG) can be visualized by switching between visible light and fluorescein green.

U87 cells = experiment: Intracellular translocation into U87 cells by fluorescence microscopy; details: 50 μM; 90 and 180 min; 380 nm excitation, 510 nm emission
Source text: Fluorescence Microscopy. […] Excitation light was provided by a xenon arc lamp coupled to the Polychrome IV scanning monochromator (Till Photonics; Grafelfing, Germany) that alternately excites with different wavelengths. Excitation light was delivered by fiber optics to cells through the epifluorescence port of a Nikon E600 microscope coupled to a Nikon Fluor 60× water immersion lens. The detector was an Orca II-ER CCD digital camera (Hamamatsu USA; Bridgewater, N.J.), which is controlled by C-Imaging Simple PCI software (Compix; Cranberry Township, Pa.).
Intracellular emission intensities were collected in regions of interest (ROI) from an average of 4-8 cells/field using Simple PCI imaging software. […] Images were captured as TIFF files (C-imaging Simple PCI software), and light and fluorescent images of the same field were imported in Photoshop 6.0 and vector graphics added using Illustrator 9.0.1 (Adobe; San Jose, Calif.).

NCX = details: read-out: IC50 for NCX inhibition; cited from earlier work
[7] = Neuropathological and neurobehavioral effects of intracerebral/intrathecal amiloride infusion in rats
Method: Rats were subjected to a “probe” trial following the last acquisition trial in MWM assessment following tumor and drug administration. The hidden platform was removed and the rat was allowed to swim for 60 seconds. The duration of time spent in the “target” quadrant (formerly containing the platform) was recorded.

NHE1 [8] = target: T1, NHE1; parameters: host or cells: CHO cell lines; details: CHO cell lines, published values; read-out: IC50 of cariporide (NHE); cited from earlier work
U87 glioma cells [9] = details: Hegde et al. 2004; cited from earlier work
T98G [10] = details: cited from earlier work
U87 [11] = details: cited from earlier work
U373 = details: cited from earlier work
U87 [12] = details: cited from earlier work; remark: listed apart in the source
T98G [13] = details: cited from earlier work; remark: listed apart in the source
A172 = details: cited from earlier work
[14] = intracerebral amiloride infusion
[15] = intrathecal infusion, tumor-implanted rats

T1 sequence (P19634 whole entry): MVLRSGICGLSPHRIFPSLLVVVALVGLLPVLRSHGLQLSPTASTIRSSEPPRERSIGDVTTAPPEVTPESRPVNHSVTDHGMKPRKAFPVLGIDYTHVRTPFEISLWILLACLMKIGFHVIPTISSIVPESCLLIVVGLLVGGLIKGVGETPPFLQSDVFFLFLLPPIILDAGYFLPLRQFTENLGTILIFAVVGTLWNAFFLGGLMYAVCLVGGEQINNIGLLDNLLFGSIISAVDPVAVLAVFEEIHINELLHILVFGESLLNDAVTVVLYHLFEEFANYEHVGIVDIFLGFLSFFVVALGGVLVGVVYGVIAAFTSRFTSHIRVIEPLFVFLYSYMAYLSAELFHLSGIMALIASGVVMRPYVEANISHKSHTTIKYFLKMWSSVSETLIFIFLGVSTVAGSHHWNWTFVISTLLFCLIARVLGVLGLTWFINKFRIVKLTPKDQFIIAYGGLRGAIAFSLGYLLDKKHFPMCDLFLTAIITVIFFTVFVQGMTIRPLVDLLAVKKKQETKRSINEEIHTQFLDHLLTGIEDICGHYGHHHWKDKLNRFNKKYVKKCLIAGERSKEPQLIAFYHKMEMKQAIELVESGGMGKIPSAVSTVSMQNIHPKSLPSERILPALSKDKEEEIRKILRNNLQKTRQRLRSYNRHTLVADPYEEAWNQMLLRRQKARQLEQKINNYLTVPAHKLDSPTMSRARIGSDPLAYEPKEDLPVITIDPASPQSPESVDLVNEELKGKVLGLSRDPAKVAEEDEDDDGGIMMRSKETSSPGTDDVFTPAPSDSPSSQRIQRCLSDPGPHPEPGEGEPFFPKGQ
T2 sequence (P26431 whole entry): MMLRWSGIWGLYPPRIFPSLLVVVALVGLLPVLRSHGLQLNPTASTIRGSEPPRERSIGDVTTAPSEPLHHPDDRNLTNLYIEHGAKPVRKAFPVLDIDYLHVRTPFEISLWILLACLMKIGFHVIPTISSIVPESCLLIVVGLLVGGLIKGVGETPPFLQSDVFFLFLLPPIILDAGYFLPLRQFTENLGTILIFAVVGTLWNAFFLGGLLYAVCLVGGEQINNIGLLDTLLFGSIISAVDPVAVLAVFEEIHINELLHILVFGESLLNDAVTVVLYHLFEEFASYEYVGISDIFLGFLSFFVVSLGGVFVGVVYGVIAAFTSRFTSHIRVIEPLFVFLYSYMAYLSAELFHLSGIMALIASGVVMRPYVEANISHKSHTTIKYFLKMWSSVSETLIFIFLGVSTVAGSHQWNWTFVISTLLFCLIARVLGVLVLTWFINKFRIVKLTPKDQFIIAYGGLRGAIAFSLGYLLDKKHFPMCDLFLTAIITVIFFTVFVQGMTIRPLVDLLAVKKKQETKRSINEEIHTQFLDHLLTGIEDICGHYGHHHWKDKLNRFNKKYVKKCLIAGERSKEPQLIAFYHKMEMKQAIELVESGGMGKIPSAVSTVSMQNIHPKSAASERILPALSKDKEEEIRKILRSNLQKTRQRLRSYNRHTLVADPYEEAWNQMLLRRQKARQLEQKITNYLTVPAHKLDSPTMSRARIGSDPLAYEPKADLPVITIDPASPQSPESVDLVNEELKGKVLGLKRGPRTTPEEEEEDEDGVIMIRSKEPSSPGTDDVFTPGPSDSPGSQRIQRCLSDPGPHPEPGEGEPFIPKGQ

NC(N)=NC(=O)c1nc(Cl)c(N)nc1N [Amiloride, 3,5-diamino-6-chloro-N-(diaminomethylene)pyrazinecarboxamide]
Reversal of NHE1 inhibition after removal of compound (NHE1 [1]; U87 cells): slow and incomplete recovery; also recorded: prolonged and an incomplete recovery | IC50 (NHE1 [2]): 6 µM | Rel. Activity (NHE1 and NCX): NHE > NCX | Concentration that killed U87 glioma cells (U87 glioma cells [3]; U87 glioma cells, C2am-Gly within 24 h): 500 µM | Concentration that killed glioma cells (U87 glioma cells [3]; glioma cells, amiloride within 48-72 hours): ≥ 500 µM | Doubling time, day postimplant 10 ([4]; 10 mM amiloride reservoir): 3.07 | Doubling time, day postimplant 12 ([4]; 10 mM amiloride reservoir): 3.40 | Doubling time, day postimplant 15 ([4]; 10 mM amiloride reservoir): 3.99 | Doubling time, day postimplant 17 ([4]; 10 mM amiloride reservoir): 4.44 | Effect on tumor growth rate ([4]; 10 mM reservoir, 28 pmol/24 h, 0.14 nmol): did not affect | Doubling time, day postimplant 10 ([4]; 100 mM amiloride reservoir): 1.23 | Doubling time, day postimplant 12 ([4]; 100 mM amiloride reservoir): 1.98 | Doubling time, day postimplant 15 ([4]; 100 mM amiloride reservoir): 4.58+ | Doubling time, day postimplant 17 ([4]; 100 mM amiloride reservoir): 11.65++ | Increase of tumor doubling time compared to vehicle-treated animals ([4]; 100 mM reservoir, 276 pmol/24 h for 5 days, 1.4 nmol total): 3 fold | Effect on normal brain cell types (histology) [4, 14]: unaffected | Glioma cell death in poorly vascularized tumor regions (eosin staining) [4, 14]: necrotic glioma cell death | Effect on tumor growth rates ([4]; intracerebral infusion at relatively high doses vs vehicle): significantly slowed | Killing of astrocytes (astrocytes): not astrocytes | Glioma Effect: cytotoxic concentration (U87 glioma cells [5]): ≥ 500 µM | Glioma Effect: antiproliferative concentration (U87 glioma cells [6]): < 50 µM | Intracellular accumulation in U87 cells (U87 cells): intracellular accumulation; also recorded: rapid cell permeation | IC50 (NCX): 500 µM | Neuropathological changes in normal brain cell types ([7]; Sprague-Dawley rats, 276 pmol/24 h intracerebral, 12 days): not observed; also recorded: no demonstrable neuropathology | Balance and fine motor coordination (beam walk) [7, 15]: did not affect | Memory in a spatial learning task (probe trial) [7, 15]: did not affect

CC(C)c1ccc(C(=O)NC(=N)N)cc1S(C)(=O)=O [Cariporide]
Relative Potency (NHE1 [1]; NHE inhibition relative to amiloride = 1): 676 | IC50 (NHE1 [1]; U87 glial cells, read-out: IC50 of cariporide (NHE inhibition)): 0.074 µM | IC50 (NHE1 [8]): 0.03 µM | Cytotoxicity to glioma cells (U87 glioma cells [5]): cytotoxic | Killing of glioma cells by selective NHE inhibitor (U87 glioma cells [9]): do not kill glioma cells

Cn1nnc2c(C(N)=O)ncn2c1=O [Temozolamide]
Temozolamide sensitivity (T98G [10]): no | Temozolamide sensitivity (U87 [11]): yes | Temozolamide sensitivity (U373): yes

CN[C@@H]1C[C@H]2O[C@@](C)([C@@H]1OC)n1c3ccccc3c3c4c(c5c6ccccc6n2c5c31)C(=O)NC4 [staurosporine]
G1 arrest with staurosporine (U87 [12]): yes | G1 arrest with staurosporine (T98G [13]): yes | G1 arrest with staurosporine (A172): yes
